# Columns and labels:
# Cryptococcus neoformans [1] = experiment: Antifungal activity against Cryptococcus neoformans H99 assessed as reduction in fungal growth incubated for 72 hrs by broth microdilution method; assay type: functional
# Nakaseomyces glabratus = experiment: Antifungal activity against Candida glabrata 537 assessed as reduction in fungal growth incubated for 72 hrs by broth microdilution method; assay type: functional
# Candida albicans = experiment: Antifungal activity against Candida albicans SC5314 assessed as reduction in fungal growth incubated for 72 hrs by broth microdilution method; assay type: functional
# Candida parapsilosis = experiment: Antifungal activity against Candida parapsilosis ATCC 22019 assessed as reduction in fungal growth incubated for 72 hrs by broth microdilution method; assay type: functional; conditions: Lodderomyces parapsilosis
# Pichia kudriavzevii = experiment: Antifungal activity against Pichia kudriavzevii 4946 assessed as reduction in fungal growth incubated for 72 hrs by broth microdilution method; assay type: functional
# [Candida] auris = Antifungal activity against Candida auris D12 assessed as reduction in fungal growth incubated for 72 hrs by broth microdilution method; assay type: functional; conditions: Candidozyma auris
# Candida tropicalis = experiment: Antifungal activity against Candida tropicalis 2718 assessed as reduction in fungal growth incubated for 72 hrs by broth microdilution method; assay type: functional
# [2] = Metabolic stability in mouse liver microsomes assessed as half life; assay type: ADME, Microsome
# [3] = Metabolic stability in mouse liver microsomes assessed as elimination rate constant; assay type: ADME, Microsome
# [4] = Metabolic stability in mouse liver microsomes assessed as intrinsic clearance; assay type: ADME, Microsome; conditions: read-out: CLH
# Cryptococcus neoformans [5] = experiment: Potency index, ratio of deferasirox MIC to test compound for antifungal activity against Cryptococcus neoformans H99 incubated for 72 hrs by broth microdilution method; assay type: functional
smiles,measurement,setting,value
O=C(NCc1ccccn1)c1ccc(-n2nc(-c3ccccc3O)nc2-c2ccccc2O)cc1,MIC,Cryptococcus neoformans [1],8 µg/mL
CCOCCNC(=O)c1ccc(-n2nc(-c3ccccc3O)nc2-c2ccccc2O)cc1,MIC,Cryptococcus neoformans [1],1 µg/mL
COCCCNC(=O)c1ccc(-n2nc(-c3ccccc3O)nc2-c2ccccc2O)cc1,MIC,Cryptococcus neoformans [1],4 µg/mL
CN1CCCC(CNC(=O)c2ccc(-n3nc(-c4ccccc4O)nc3-c3ccccc3O)cc2)C1 (centres undefined),MIC,Nakaseomyces glabratus,< 0.125 µg/mL
same,MIC,Candida albicans,32 µg/mL
same,MIC,Candida parapsilosis,64 µg/mL
same,MIC,Pichia kudriavzevii,16 µg/mL
same,MIC,Cryptococcus neoformans [1],0.25 µg/mL
same,MIC,[Candida] auris,> 64 µg/mL
same,MIC,Candida tropicalis,32 µg/mL
O=C(Nc1ccccc1)c1ccc(-n2nc(-c3ccccc3O)nc2-c2ccccc2O)cc1,MIC,Cryptococcus neoformans [1],4 µg/mL
O=C(NCCN1CCCCC1)c1ccc(-n2nc(-c3ccccc3O)nc2-c2ccccc2O)cc1,MIC,Cryptococcus neoformans [1],1 µg/mL
O=C(NN1CCOCC1)c1ccc(-n2nc(-c3ccccc3O)nc2-c2ccccc2O)cc1,MIC,Cryptococcus neoformans [1],2 µg/mL
O=C(NCc1ccco1)c1ccc(-n2nc(-c3ccccc3O)nc2-c2ccccc2O)cc1,MIC,Cryptococcus neoformans [1],4 µg/mL
CN(C)CCNC(=O)c1ccc(-n2nc(-c3ccccc3O)nc2-c2ccccc2O)cc1,MIC,Cryptococcus neoformans [1],4 µg/mL
O=C(NCCc1ccccn1)c1ccc(-n2nc(-c3ccccc3O)nc2-c2ccccc2O)cc1,MIC,Nakaseomyces glabratus,< 0.125 µg/mL
same,MIC,Candida albicans,32 µg/mL
same,MIC,Candida parapsilosis,> 64 µg/mL
same,MIC,Pichia kudriavzevii,4 µg/mL
same,MIC,Cryptococcus neoformans [1],0.5 µg/mL
same,MIC,[Candida] auris,> 64 µg/mL
same,MIC,Candida tropicalis,64 µg/mL
O=C(NC1CS(=O)(=O)C1)c1ccc(-n2nc(-c3ccccc3O)nc2-c2ccccc2O)cc1,MIC,Cryptococcus neoformans [1],1 µg/mL
CCNC(=O)c1ccc(-n2nc(-c3ccccc3O)nc2-c2ccccc2O)cc1,MIC,Cryptococcus neoformans [1],1 µg/mL
Cc1ncc2n1-c1ccc(Cl)cc1C(c1ccccc1F)=NC2 [MIDAZOLAM],half-life,[2],4.67 min
same,k el,[3],0.00247 s⁻¹
same,microsomal CLint,[4],742 µL/min/mg
O=C1C[C@@H](NC(=O)c2ccc(-n3nc(-c4ccccc4O)nc3-c3ccccc3O)cc2)CO1,MIC,Cryptococcus neoformans [1],> 64 µg/mL
O=C(NCCCn1ccnc1)c1ccc(-n2nc(-c3ccccc3O)nc2-c2ccccc2O)cc1,MIC,Cryptococcus neoformans [1],8 µg/mL
O=C(NNCc1ccccc1)c1ccc(-n2nc(-c3ccccc3O)nc2-c2ccccc2O)cc1,MIC,Cryptococcus neoformans [1],8 µg/mL
O=C(N[C@@H]1CCOC1)c1ccc(-n2nc(-c3ccccc3O)nc2-c2ccccc2O)cc1,MIC,Cryptococcus neoformans [1],4 µg/mL
O=C(NCCc1ccccc1)c1ccc(-n2nc(-c3ccccc3O)nc2-c2ccccc2O)cc1,MIC,Cryptococcus neoformans [1],8 µg/mL
CC(C)(O)CCNC(=O)c1ccc(-n2nc(-c3ccccc3O)nc2-c2ccccc2O)cc1,Ratio,Cryptococcus neoformans [5],2
same,MIC,Nakaseomyces glabratus,< 0.125 µg/mL
same,MIC,Candida albicans,16 µg/mL
same,MIC,Candida parapsilosis,> 64 µg/mL
same,MIC,Pichia kudriavzevii,4 µg/mL
same,MIC,Cryptococcus neoformans [1],1 µg/mL
same,MIC,[Candida] auris,> 64 µg/mL
same,MIC,Candida tropicalis,4 µg/mL
O=C(NCCCO)c1ccc(-n2nc(-c3ccccc3O)nc2-c2ccccc2O)cc1,MIC,Cryptococcus neoformans [1],2 µg/mL
O=C(O)c1cccc(-n2nc(-c3ccccc3O)nc2-c2ccccc2O)c1,MIC,Cryptococcus neoformans [1],4 µg/mL
O=C(NC1CCS(=O)(=O)CC1)c1ccc(-n2nc(-c3ccccc3O)nc2-c2ccccc2O)cc1,MIC,Cryptococcus neoformans [1],4 µg/mL
O=C(NNc1ccccc1)c1ccc(-n2nc(-c3ccccc3O)nc2-c2ccccc2O)cc1,MIC,Cryptococcus neoformans [1],2 µg/mL
O=C1C[C@H](NC(=O)c2ccc(-n3nc(-c4ccccc4O)nc3-c3ccccc3O)cc2)CO1,MIC,Cryptococcus neoformans [1],> 64 µg/mL
CN1CCOC(CNC(=O)c2ccc(-n3nc(-c4ccccc4O)nc3-c3ccccc3O)cc2)C1 (centres undefined),MIC,Nakaseomyces glabratus,< 0.125 µg/mL
same,MIC,Candida albicans,2 µg/mL
same,MIC,Candida parapsilosis,32 µg/mL
same,MIC,Pichia kudriavzevii,4 µg/mL
same,MIC,Cryptococcus neoformans [1],0.5 µg/mL
same,MIC,[Candida] auris,> 64 µg/mL
same,MIC,Candida tropicalis,1 µg/mL
O=C(NCCC1CCOCC1)c1ccc(-n2nc(-c3ccccc3O)nc2-c2ccccc2O)cc1,MIC,Nakaseomyces glabratus,< 0.125 µg/mL
same,MIC,Candida albicans,32 µg/mL
same,MIC,Candida parapsilosis,32 µg/mL
same,MIC,Pichia kudriavzevii,16 µg/mL
same,MIC,Cryptococcus neoformans [1],0.25 µg/mL
same,MIC,[Candida] auris,> 64 µg/mL
same,MIC,Candida tropicalis,1 µg/mL
O=C(c1ccc(-n2nc(-c3ccccc3O)nc2-c2ccccc2O)cc1)N1CCOCC1,MIC,Cryptococcus neoformans [1],4 µg/mL
O=C(NCCN1CCC(F)(F)CC1)c1ccc(-n2nc(-c3ccccc3O)nc2-c2ccccc2O)cc1,MIC,Cryptococcus neoformans [1],1 µg/mL
O=C(NCCN1CCOCC1)c1cccc(-n2nc(-c3ccccc3O)nc2-c2ccccc2O)c1,MIC,Cryptococcus neoformans [1],1 µg/mL
O=C(NCCNc1ncccn1)c1ccc(-n2nc(-c3ccccc3O)nc2-c2ccccc2O)cc1,MIC,Nakaseomyces glabratus,1 µg/mL
same,MIC,Candida albicans,32 µg/mL
same,MIC,Candida parapsilosis,> 64 µg/mL
same,MIC,Pichia kudriavzevii,16 µg/mL
same,MIC,Cryptococcus neoformans [1],0.5 µg/mL
same,MIC,[Candida] auris,> 64 µg/mL
same,MIC,Candida tropicalis,8 µg/mL
